Where two headings read alike, the source gives them in different places.
How the values were obtained:
[1] = ABTS antioxidant assay; settings: for antioxidant activity relative to the standards daidzein and genistein: ABTS assay, summary of Table 1; for Trolox Equivalents (μmol/μmol): IC50 compared to IC50 of trolox; for IC50: concentration causing 50% reduction in ABTS absorbance, 2 min, room temperature
Procedure: This example illustrates how the biological data pertaining to antioxidant properties of the compounds was obtained.
The antioxidant activity of each test agent was assayed by a colorimetric assay described in the literature that utilizes 2,2′-azinobis-3-ethylbenzothiazoline-6-sulfonic acid (ABTS). ABTS has an intense blue-green color in its free radical form, but is colorless without the free radical. Free radical ABTS was generated by reacting 7 mM ABTS with 2.45 mM potassium persulfate in water for 24-48 hr at room temperature in the dark. Test agents were diluted in 50/50 phosphate buffered saline (PBS)/ethanol to a series of five concentrations, then added to a 96 well half-area plate using 50 μl per well with four wells for each agent concentration. Four control wells containing 50/50 PBS/ethanol without test agents were setup for comparison for each test agent. Trolox, a water-soluble form of vitamin E commonly employed as an antioxidant standard, was also tested in each set of experiments. The free radical ABTS solution was diluted with 50/50 PBS/ethanol to give an absorbance of 1.4 absorbance units at 734 nm, and was then added 50 μl per well to two of the four wells for each condition. The other two wells for each condition received 50 μl of 50/50 PBS/ethanol without ABTS to provide background correction absorbance readings. All dilution and plate loading operations were performed on a Packard Multiprobe II HTS automated liquid handling system. […] Readings for wells with ABTS were background corrected using the corresponding wells containing matching test agent levels without ABTS. The background corrected absorbance of each test agent concentration was then compared to the control wells without agent to determine the percent decrease in color intensity, corresponding to the percent of ABTS free radical reduction. A fit of percent absorbance decrease versus test agent concentration was then used to estimate the concentration causing a 50% reduction in absorbance, called the IC50. The test agent IC50 values were then compared to the IC50 of trolox to calculate the trolox equivalents (TE, moles of trolox needed to give the same level of antioxidant activity as one mole of test agent) for each agent. Smaller IC50 values or larger TE values indicate higher levels of antioxidant activity.

[2] = tested on: MCF7 cells; test: Growth inhibition assay (NCI method, sulforhodamine B), MCF7; assay type: cell-based, human; settings: for GI50: read-out: GI50 (μM) MCF7
[3] = tested on: MCF12A cells; test: Growth inhibition assay (NCI method, sulforhodamine B), MCF12A; assay type: cell-based, human; settings: for GI50: read-out: GI50 (μM) MCF12A
[4] = tested on: NCI/ADR-RES cells; test: Growth inhibition assay (NCI method, sulforhodamine B), NCI/ADR-RES; assay type: cell-based, human; settings: for GI50: read-out: GI50 (μM) NCI/ADR-RES; for fall-off in activity in NCI/ADR-RES versus MCF7: multidrug resistant cell line over-expressing Pgp
[5] = tested on: estrogen receptor (ERE-luciferase) in MCF7 ER-positive cells; test: ERE-Luciferase assay, estrogenic and antiestrogenic activity; assay type: cell-based, human
Procedure: Cell Culture Studies (MCF7 ER-Positive Cells)
Human cancer cell lines derived from breast (MCF7, ER-positive cells) were cultured in 75 ml culture flasks in DMEM (Invitrogen, Co.) supplemented with 10% FBS (Life Technologies, Inc., Gaithersburg, Md.), basic minimum MEM essential (50×, Invitrogen Co.) and MEM non-essential (100×, Invitrogen, Co.) amino acids, sodium pyruvate (100× Invitrogen Co.), antimicotic-antibiotic (10,000 U/mL penicillin G sodium; 10,000 μg/mL streptomycin sulphate; 25 μg/mL amphotericin B as Fungizone®), and human recombinant insulin (4 mg/mL. Invitrogen Co.). The culture flasks were maintained in a tissue culture incubator in a humidified atmosphere of 5% CO2 and 95% air at 37° C. For estrogen studies, cells were washed with PBS 3 times and grown in phenol red-free DMEM supplemented with 5% dextran-coated charcoal-treated FBS (5% CS-FBS) for 72 h before plating for each particular experiment.
Results were then assessed by using an ERE-luciferase assay. The cells were plated in 24 well plates at 5×10^5 cells/well in the same media and allowed to attach overnight. After 18 hours, cells were transfected for 5 h in serum supplemented-free DMEM with […] pGL2-ERE2X-TK-luciferase plasmid, using 6 μl of effectine (Qiagen)/μg of DNA. After 5 h the transfection medium was removed and replaced with phenol red-free DMEM supplemented with 5% CS-FBS containing vehicle, 17β-estradiol, GLY I, or 17β-estradiol plus GLY I, and incubated at 37° C. After 18 h the medium was removed, and 100 μl of lysis buffer was added per well and then incubated for 15 min at room temperature. Cell debris was pelleted by centrifugation at 15000×g for 5 min. cell extracts were normalized for protein concentration using reagent according to the protocol supplied by the manufacturer (Bio-Rad Laboratories, Inc., Hercules, Calif.). Luciferase activity for the cell extracts was determined using Luciferase substrate (Promega Corp.) in an Autoluminat Plus luminometer.

[6] = molecular target: T1, hrER-α (alpha estrogen receptor) (Homo sapiens, UniProt P03372); test: ER-α competition binding assay (fluorescence anisotropy, ES2 displacement); settings: ERα/ES2 complex, 2 h room temperature, FIG. 9; read-out: IC50 for 50% inhibition of a standard's binding with the alpha estrogen receptor (ER-α)
T1 sequence (P03372 1-595): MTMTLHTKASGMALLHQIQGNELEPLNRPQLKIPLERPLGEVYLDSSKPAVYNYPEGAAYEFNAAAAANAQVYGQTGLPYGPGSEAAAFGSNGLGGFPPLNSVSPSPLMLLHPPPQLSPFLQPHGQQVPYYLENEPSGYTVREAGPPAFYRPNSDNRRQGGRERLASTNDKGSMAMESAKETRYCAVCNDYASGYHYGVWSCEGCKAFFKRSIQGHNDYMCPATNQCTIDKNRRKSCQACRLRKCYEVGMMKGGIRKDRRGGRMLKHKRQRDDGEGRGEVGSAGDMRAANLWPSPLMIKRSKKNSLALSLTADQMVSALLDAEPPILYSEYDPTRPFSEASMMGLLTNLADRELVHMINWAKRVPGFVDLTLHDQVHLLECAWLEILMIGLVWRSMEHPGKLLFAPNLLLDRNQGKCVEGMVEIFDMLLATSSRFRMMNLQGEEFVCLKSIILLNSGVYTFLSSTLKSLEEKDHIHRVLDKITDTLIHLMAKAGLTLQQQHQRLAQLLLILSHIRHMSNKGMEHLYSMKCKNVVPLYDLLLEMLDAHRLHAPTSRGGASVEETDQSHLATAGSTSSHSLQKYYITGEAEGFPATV
Procedure: This example illustrates how the biological data pertaining to interaction of the compounds with the alpha-estrogen receptors was obtained.
A 200 μM working stock solution of GLY I was prepared from an original 10 mM DMSO stock solution. The working stock solution was serially diluted in triplicate in screening buffer to the desired concentrations. hrER-α and ES2 were added to a final concentration of 2 nM and 3 nM, respectively. Negative (ER+ES2, equivalent to 0% inhibition) and positive (free ES2, equivalent to 100% inhibition) controls in the absence of competitor were measured in duplicate. After 2 h at room temperature, the anisotropy values in each tube were measured using the Beacon 2000 system CO. The anisotropy values were converted to percent inhibition using the following formula: I%=(A0−A)/(A0−A100)×100, where I% is the percent inhibition, A0 is 0% inhibition, A100 is 100% inhibition, and A represents the observed value. Polarization values were converted to percent inhibition to make the data more intuitive to the reader and to normalize the day-to-day differences in the starting 0% inhibition polarization values. The percent inhibition versus competitor concentration curves were analyzed by nonlinear least-squares curve fitting and yielded an IC50 value (the concentration of competitor needed to displace half of the bound ligand). To compare binding affinities of the test compounds to those reported in the literature, IC50 values were converted to relative binding affinities (RBA) using E2 as a standard. The E2 RBA was set equal to 100 […].

[7] = Homo sapiens, NCI/ADR-RES, 48 h
[8] = human breast cancer cells, 48 hr, 10% serum
[9] = non-cancerous 'normal' human breast epithelial cells, 48 hr
[10] = multidrug resistant cell line, 48 hr
[11] = MCF7, human breast cancer cells, 48 hr, 10% serum
[12] = MCF-12A, non-cancerous 'normal' human breast epithelial cells, 48 hr
[13] = Homo sapiens, NCI/ADR-RES, multidrug resistant cell line, 48 hr

Row | IC50 [1] [µM] | Structure (SMILES) | Trolox Equivalents (μmol/μmol) [1] [μmol/μmol] | GI50 [2, 8] [µM] | GI50 [3, 9] [µM] | GI50 [4, 10] [µM] | GI50 [2, 11] [µM] | GI50 [3, 12] [µM] | GI50 [4, 13] [µM] | further results
1 | 3.5 ± 0.3 | Oc1ccc2c(c1)OC[C@@]1(O)c3ccc(O)cc3O[C@@H]21 (racemic) [Glycinol (+/−), (+) Glycinol] | 2.8 ± 0.2 | > 1000 | > 1000 | > 1000 |  |  |  | antioxidant activity relative to the standards daidzein and genistein [1]: about equiactive to the standards; estrogenic activity (ERE-Luciferase) ([5]; concentration not given): significantly stronger estrogenic material; growth inhibitory activity ([2]; human breast cell lines, 10% serum): lack of growth inhibitory activity
2 | 5.2 ± 0.3 | CC1(C)C=Cc2c(ccc3c2OC[C@]2(O)c4ccc(O)cc4O[C@H]32)O1 [7 (+), (+) Glyceollin I (Unnatural Glyceollin I)] | 1.8 ± 0.1 |  |  |  | 21 | 31 | 38 | IC50 [6]: 1.4 µM; estrogenic activity (ERE-Luciferase) ([5]; at 10-25 μM): modest estrogenic activity; anti-estrogenic effects (ERE-Luciferase) ([5]; concentration not given): only slight anti-estrogenic effects
3 | 5.3 ± 0.3 | CC1(C)C=Cc2c(ccc3c2OC[C@@]2(O)c4ccc(O)cc4O[C@@H]32)O1 [7 (−), Glyceollin I (Natural Glyceollin I)] | 1.8 ± 0.1 |  |  |  | 12 | 25 | 27 | IC50 [6]: 1.4 µM; anti-estrogenic activity (ERE-Luciferase) ([5]; at 10-25 μM): only anti-estrogenic activity

The remaining lines, values behind:

Row | Structure (SMILES) | IC50 [1] [µM] | Trolox Equivalents (μmol/μmol) [1] [μmol/μmol] | GI50 [2, 8] [µM] | GI50 [3, 9] [µM] | GI50 [4, 10] [µM] | GI50 [2, 11] [µM] | GI50 [3, 12] [µM] | GI50 [4, 13] [µM] | further results
4 | CC(C)(C)[Si](C)(C)Oc1ccc(C2(O)COc3cc(OCc4ccccc4)ccc3C2O)c(OCc2ccccc2)c1 (racemic) [2 (+/−), (+) 4′-(t-Butyldimethylsilyloxy)-2′,7-dibenzyloxy-isoflavan-3,4-diol] | > 100 | 0.008 ± 0.006 |  |  |  |  |  |  | antioxidant activity relative to the standards daidzein and genistein [1]: weak activity; GI50 ([2]; Homo sapiens, MCF7, 48 h): 10 µM; GI50 ([3]; Homo sapiens, MCF-12A, 48 h): 20 µM; GI50 [4, 7]: 120 µM; fall-off in activity in NCI/ADR-RES versus MCF7 [4]: ca. 100 fold
5 | CC(C)(C)[Si](C)(C)Oc1ccc(C2(O)COc3cc(O)ccc3C2O)c(O)c1 (racemic) [3 (+/−), (+) 4′-(t-Butyldimethylsilyloxy)-2′,7-dihydroxy-isoflavan-3,4-diol] | 4.6 ± 0.3 | 2.0 ± 0.1 |  |  |  |  |  |  | GI50 ([2]; Homo sapiens, MCF7, 48 h): 31 µM; GI50 ([3]; Homo sapiens, MCF-12A, 48 h): 36 µM; GI50 [4, 7]: 21 µM
6 | CC(C)(C)[Si](C)(C)Oc1ccc2c(c1)OC1c3ccc(O)cc3OCC21O (racemic) [4 (+/−), (+) 9-(t-Butyldimethylsilyloxy)-glycinol] | 4.6 ± 0.2 | 2.0 ± 0.1 | 4.1 | 4 | 2.9 |  |  |  | 
7 | CC(C)(C)[Si](C)(C)Oc1ccc2c(c1)OC1c3ccc(O)cc3OCC21O (single isomer, unassigned; (+)) [4 (+), (+) 9-(t-Butyldimethylsilyloxy)-glycinol] | 5 ± 0.4 | 1.9 ± 0.1 | 14 | 15 | 13 |  |  |  | 
8 | CC(C)(C)[Si](C)(C)Oc1ccc2c(c1)OC1c3ccc(O)cc3OCC21O (single isomer, unassigned; (-)) [4 (−), (−) 9-(t-Butyldimethylsilyloxy)-glycinol] | 5 ± 0.5 | 1.9 ± 0.1 | 7.1 | 11 | 8.7 |  |  |  | 
9 | O=c1c(-c2ccc(O)cc2)coc2cc(O)ccc12 [Daidzein, reference compound] | 3.3 ± 0.2 | 3.0 ± 0.1 |  |  |  | 200 | 120 | 150 | 
10 | O=c1c(-c2ccc(O)cc2)coc2cc(O)cc(O)c12 [Genistein, reference compound] | 3.3 ± 0.1 | 3.0 ± 0.1 |  |  |  | 46 | 22 | 17 | 
11 | CC1(C)C=Cc2c(ccc3c2OC[C@@]2(O)c4ccc(O)cc4O[C@@H]32)O1 [isolated GLY I, reference compound] |  |  |  |  |  |  |  |  | IC50 [6]: 1.1 µM
12 | CC(=O)O[C@H]1C(=O)[C@@]2(C)[C@H]([C@H](OC(=O)c3ccccc3)[C@]3(O)C[C@H](OC(=O)[C@H](O)[C@@H](NC(=O)c4ccccc4)c4ccccc4)C(C)=C1C3(C)C)[C@]1(OC(C)=O)CO[C@@H]1C[C@@H]2O [paclitaxel, reference compound] |  |  |  |  |  |  |  |  | potency in MCF7 versus MCF12A (differential in activity) ([3]; cancer versus normal breast cells): nearly equivalent; fall-off in activity in NCI/ADR-RES versus MCF7 [4]: ~1,000 fold

Reference: US8563599B2, “Methods for synthesizing glycinols, glyceollins I and II, compositions of selected intermediates, and therapeutic uses thereof” (The United States of America, represented by the Secretary …, priority 2008, dated 2013)
